From patent US20160022772A1, “Cytokine Receptors as Targets for Hypertension Therapy and Methods of Use” (Duke University, priority 2014, published 2016)
Entries after “also recorded” stand apart in the source; their conditions may differ.

What was measured:
NO generation = experiment: Blockade of NO generation with L-NAME in Ang II-infused WT and IL-1R KO mice, blood pressure; type: in vivo; conditions: L-NAME in drinking water from day 7 of Ang II, by day 14
Excerpt: Because IL-1 is secreted by macrophages, macrophage infiltration into the kidneys of the experimental animals was examined. After 4 weeks of hypertension, IL-1R KO kidneys contained more F4/80+ macrophages than WTs (18±1 vs. 14±2 per HPF; p=0.03). […] In turn, the KO group had enhanced renal mRNA expression of the NO-generating enzyme iNOS (1.7±0.3 vs. 1.0±0.2 au; p<0.05) and higher excretion of NO metabolites vs. WTs (152±46 vs. 60±15 nmol/mg Cr; p=0.05). NO inhibits renal sodium (Na) reabsorption, and during the 2″d wk of Ang II infusion when WT and KO BPs separated, only the KOs entered negative Na balance (−16.8±16.8 vs. WT 34.8±7.5 1-Jmol/day, p=0.01). To confirm that preserved NO bioavailability in the Ang 11-infused KOs led to their lower BP vs. WTs, we blocked NO generation in the groups with L-NAME starting on day 7 of Ang II when the WT and KO BPs were 179±3 vs. 165±6 mm Hg (p<0.01). By day 14, BPs converged (186±5 vs. 185±8; p=NS), (FIG. 2.) As NO is known to inhibit the NKCC2 sodium transporter in the kidney, NKCC2 activity at day 10 of Ang II was measured by quantitating urine sodium to creatinine ratios (UNa/UCr) 3 hours after an IP injection of saline with or without furosemide. […] Thus, reduced NKCC2 activity in the IL-1 R KOs protects them from Ang 11-induced sodium retention. […]

NKCC2 = NKCC2 activity: 3-hour urine sodium to creatinine ratio after acute IP furosemide challenge at day 10 of Ang II; type: in vivo, mice; conditions: for urine sodium to creatinine ratio: 3-hour sodium excretion after IP furosemide
Excerpt: Because IL-1 is secreted by macrophages, macrophage infiltration into the kidneys of the experimental animals was examined. After 4 weeks of hypertension, IL-1R KO kidneys contained more F4/80+ macrophages than WTs (18±1 vs. 14±2 per HPF; p=0.03). […] In turn, the KO group had enhanced renal mRNA expression of the NO-generating enzyme iNOS (1.7±0.3 vs. 1.0±0.2 au; p<0.05) and higher excretion of NO metabolites vs. WTs (152±46 vs. 60±15 nmol/mg Cr; p=0.05). NO inhibits renal sodium (Na) reabsorption, and during the 2″d wk of Ang II infusion when WT and KO BPs separated, only the KOs entered negative Na balance (−16.8±16.8 vs. WT 34.8±7.5 1-Jmol/day, p=0.01). To confirm that preserved NO bioavailability in the Ang 11-infused KOs led to their lower BP vs. WTs, we blocked NO generation in the groups with L-NAME starting on day 7 of Ang II when the WT and KO BPs were 179±3 vs. 165±6 mm Hg (p<0.01). By day 14, BPs converged (186±5 vs. 185±8; p=NS), (FIG. 2.) As NO is known to inhibit the NKCC2 sodium transporter in the kidney, NKCC2 activity at day 10 of Ang II was measured by quantitating urine sodium to creatinine ratios (UNa/UCr) 3 hours after an IP injection of saline with or without furosemide. […] Thus, reduced NKCC2 activity in the IL-1 R KOs protects them from Ang 11-induced sodium retention.
Therefore, to examine NKCC2 activity in the groups at day 10 of Ang II when the differences in sodium excretion was noted, 3-hour sodium excretion was quantitated in response to an acute intraperitoneal (IP) furosemide challenge (FIG. 8). In response to IP saline injection alone, the IL-1RKO mice had exaggerated urine sodium to creatinine ratios, consistent with their enhanced natriuresis in original balance study (237±38 vs. 120±9%; p=0.016). […] Without being bound by a particular theory, it is believed that IL-1 receptor activation stimulates renal sodium reabsorption via NKCC2-mediated sodium transport during Ang II-dependent HTN.

[1] = test system: wild-type mice in AngII-dependent hypertension model; experiment: Ang II-dependent hypertension model, blood pressure by radiotelemetry; type: in vivo
Experimental: To study the role of IL-1 receptor (IL-1 R) activation in hypertension, uni-nephrectomized IL-1 R-deficient(IL-1R KO) and wild-type (WT) mice was chronically infused with angiotensin II (Ang II; 1000 ng/kg/min) for 4 weeks using an implanted osmotic mini-pump after measurement of baseline blood pressures. Chronic angiotensin II infusion in rodents is a widely accepted model of hypertension that leads to the same complications in rodents as those seen in humans including cardiac hypertrophy and kidney damage. Unilateral nephrectomy renders the remaining kidney more susceptible to injury in this hypertension model. In the experiments of the disclosure baseline mean arterial pressures (MAPs) were similar between groups.
In the present disclosure, Anakinra was administered at 50 mg/kg/day IP to wild-type mice in AngII-dependent hypertension model.
FIG. 3B illustrates the effect of treatment with 50 mg/kg/day IP once daily beginning 3 days prior to and continuing throughout the Ang II infusion period.
Uni-nephrectomized IL-1 R-deficient(IL-1R KO) and wild-type (WT) mice was chronically infused with (1000 ng/kg/min) for 4 weeks using an implanted osmotic mini-pump after measurement of baseline blood pressures. […] Blood pressure was monitored continuously using radiotelemetry.

Ang II-infused mice = experiment: Target organ damage (cardiac hypertrophy, albuminuria) in Ang II-induced hypertension; type: in vivo; conditions: Ang II-infused mice treated with anakinra
Experimental: For example, the Ang 11-infused IL-1 R KO mice had less cardiac hypertrophy than WJ mice as measured by heart weight/body weight ratios (7.5±0.9 vs. 9.3±0.8 mg/g, p<0.001). Loss of albumin in the urine is a marker for kidney glomerular damage in humans, and Ang 11-infused IL-1 R KO mice had nearly 40% less in albuminuria than Ang 11-infused WT animals (5.90±0.93 vs. 9.38±1.43 mg/mg Cr; p=0.05). […] Thus, the lower blood pressures in IL-1 receptor-deficient mice led to reduced hypertensive damage to the heart and kidney.
Uni-nephrectomized IL-1 R-deficient(IL-1R KO) and wild-type (WT) mice was chronically infused with (1000 ng/kg/min) for 4 weeks using an implanted osmotic mini-pump after measurement of baseline blood pressures. The mice were then treated with vehicle or anakinra (50 mg/kg/day IP) once daily beginning 3 days prior to and continuing throughout the Ang II infusion period (FIG. 3). Blood pressure was monitored continuously using radiotelemetry.
Next, levels of albuminuria, which is a marker for kidney damage, were measured in Ang II-infused IL-1R Kos and wild type mice. It was observed that the levels of albuminuria were reduced by 37% in the IL1R KO mice vs. the wild type: 5899±929 vs. 9380±1423, n=9,10, p=0.052 (37.1% reduction); for 24 hour albuminuria, 3574 vs. 5082, p=0.0810 (30.4% reduction).

[2] = test system: patients with rheumatic diseases; conditions: in vivo; cited from earlier work

**Q.** Which “blood pressure following L-NAME treatment” value (NO generation; IL-1R KO mice) does the source give for `COC(=O)[C@@H](N)CCCNC(=N)N[N+](=O)[O-]` [L-NAME, L-Nitroarginine Methyl Ester] here?
**A.** 185±8 mm Hg

**Q.** What about the “blood pressure following L-NAME treatment” value (NO generation; WT mice) of the same molecule?
**A.** 186±5 mm Hg

**Q.** Which results are given for `NS(=O)(=O)c1cc(C(=O)O)c(NCc2ccco2)cc1Cl` [furosemide]?
**A.** urine sodium to creatinine ratio (NKCC2; IL-1R KO mice): 481±103%; urine sodium to creatinine ratio (NKCC2; WT mice): 453±56%; urine sodium to creatinine ratio (UNa/UCr) (NKCC2; WT mice, 3 hours after IP furosemide): 453±60 mmollmmol

**Q.** Which “ability to limit blood pressure elevation / protection from hypertension” value ([1]; 50 mg/kg/day IP once daily, during Ang II infusion (1000 ng/kg/min)) does the source give for “Anakinra: recombinant, nonglycosylated form of the human interleukin-1 receptor antagonist (IL-1Ra) with an added N-terminal methionine, 153 amino acids” here?
**A.** as robust as genetic deletion of the receptor; also recorded: as profound as that seen in the IL-1R KO mice

**Q.** And the “effect on baseline blood pressure” value ([1]; 50 mg/kg/day IP, before Ang II infusion (Pre))?
**A.** no impact; also recorded: no effect

**Q.** And the “decrease in cardiac hypertrophy” value (Ang II-infused mice; FIG. 9A)?
**A.** as profound as that seen in the IL-1R KO mice

**Q.** And the decrease in albuminuria (Ang II-infused mice; FIG. 9B)?
**A.** as profound as that seen in the IL-1R KO mice

**Q.** What about the “hypotension in clinical trials” value [2] of the same molecule?
**A.** lack of hypotension
